US20240124503A1, “HETEROAROMATIC PHOSPHONIUM SALTS AND THEIR USE TREATING CANCER” (FLORATEK PHARMA S.A., priority 2021, published 2024)
Read-outs that look alike come from different tables or passages of the source.

What was measured:
Format in all cases: cell-based
KI-12-0062 = assay: Cell viability, kidney PDX KI-12-0062
Description: (§1) PDX-derived cell cultures were obtained from tumors explanted from mice and isolated by mechanical and enzymatic dissociation. […] Cells were harvested and seeded in 96-wells plates at a density of 1.25 to 5×10^3 cells/well for cytotoxicity assays. Cells were incubated 48 h at 37° C. prior to addition of test molecules and vehicle (DMSO, 0.1%) at desired final concentrations. Cell viability was assessed before drugs' addition (To) and 5 days after test molecules addition by measuring ATP cell content using CellTiter-Glo® Luminescent Cell Viability Assay (Promega) according to the manufacturer's instructions. Luciferase activity was measured on a luminometer (PerkinElmer® EnVision™). Each concentration of compounds was tested in triplicate.
(§2) Viability was calculated as a percentage of ATP value compared to vehicle treated controls.
(§3) For PDX primary cell cultures, the tumour tissue was washed with PBS containing antibiotic-antimycotic and non-tumour tissue and necrotic tumour tissues were separated. The tumour tissue was transferred to a new dish and cut into 1˜2 mm^3 fragments, resuspended in RPMI-1640 medium and centrifuged at 1,200 rpm for 6 min at room temperature. The pelleted material was resuspended with 15 mL of Tumour Cell Digestion Solution and incubated at 37° C. for 1 hour with agitation. Following further addition of media, centrifugation and passage through a 70 μm cell strainer, the homogenous cell mixture was layered onto 15 mL of Ficoll-Paque PLUS in a 50 mL conical tube and centrifuged for 15 min at 1,600 rpm. The interface cells were collected, washed with media, separated by centrifugation at 1,200 rpm. The cell pellet was resuspended in serum free media supplemented with growth factors. 10,000 cells/wells were plated in a 96 well plate and incubated at 37° C., 5% CO2, 95% air and 100% relative humidity overnight. The cytotoxicity assay was conducted as above.
(§4) Sigmoidal concentration-response curves were fitted to the data points (test-versus-control, T/C values) obtained for each tumor model using GraphPad prism 5.02 software.

PC-07-0045 = assay: Cell viability, pancreatic PDX PC-07-0045
Description: as §1, §2
(§5) For PDX primary cell cultures, the tumour tissue was washed with PBS containing antibiotic-antimycotic and non-tumour tissue and necrotic tumour tissues were separated. The tumour tissue was transferred to a new dish and cut into 1˜2 mm^3 fragments, resuspended in RPMI-1640 medium and centrifuged at 1,200 rpm for 6 min at room temperature. The pelleted material was resuspended with 15 mL of Tumour Cell Digestion Solution and incubated at 37° C. for 1 hour with agitation. […]

HT-29 = assay: Cell viability assay, HT-29; settings: colon carcinoma cell line HT-29
Description: (§6) Antitumor activity of the compounds and doxorubicin as a positive control was assessed by using the CellTiter-Blue Cell Viability Assay (Promega, #G8082) or CellTiter-Glow® Luminescent Cell Viability assay (Promega #G7572) according to the manufacturer's instructions. The compounds were tested at 5 or 6 concentrations in half-log increments (highest concentration 30 μM or 100 μM) in duplicate or triplicate well conditions.
(§7) Tumor cells were grown at 37° C. in a humidified atmosphere with 5% CO2 in RPMI 1640 or DMEM medium, supplemented with 10% (v/v) fetal calf serum and 50 μg/ml gentamicin for up to 20 passages, and were passaged once or twice weekly. Cells were harvested using TrypLE or PBS buffer containing 1 mM EDTA, and the percentage of viable cells was determined using a CASY Model TI cell counter (OMNI Life Science). Cells were harvested from exponential phase cultures, counted and plated in 96 well flat-bottom microtiter plates at a cell density depending on the cell line's growth rate (4,000-20,000 cells/well depending on the cell line's growth rate, up to 60,000 for hematological cancer cell lines) in RPMI 1640 or DMEM medium supplemented with 10% (v/v) fetal calf serum and 50 μg/ml gentamicin (140 μl/well). […] Viability of cells was quantified by the CellTiter-Blue® cell viability assay (Promega G8081) or CellTiter-Glow® Luminescent Cell Viability assay (Promega #G7572). […]

ST-02-0007 = assay: Cell viability, stomach PDX ST-02-0007
Description: as §1, §2, §5

ST-02-0173 = assay: Cell viability, stomach PDX ST-02-0173
Description: as §1, §2, §5

LU-01-0010 = assay: Cell viability, lung PDX LU-01-0010
Description: as §1, §2, §5

LoVo = assay: Cell viability assay, LoVo; settings: colon carcinoma cell line LoVo
Description: as §6, §7

PC-07-0059 = assay: Cell viability, pancreatic PDX PC-07-0059
Description: as §1, §2, §5

SF-268 = assay: Cell viability assay, SF-268; settings: brain carcinoma cell line SF-268
Description: as §6, §7

22Rv1 = assay: Cell viability assay, 22Rv1; settings: prostate carcinoma cell line 22Rv1
Description: as §6, §7

LY-24-0340 = assay: Cell viability, lymphoma PDX LY-24-0340
Description: as §1, §2, §3, §4

OVCAR-3 = assay: Cell viability assay, OVCAR-3; settings: ovarian carcinoma OVCAR-3
Description: as §6, §7

CH-17-0098 = assay: Cell viability, bile duct PDX CH-17-0098
Description: as §1, §2, §5

HL-60 = assay: Cell viability assay, HL-60
Description: as §6
Tumor cells were grown at 37° C. in a humidified atmosphere with 5% CO2 in RPMI 1640 or DMEM medium, supplemented with 10% (v/v) fetal calf serum and 50 μg/ml gentamicin for up to 20 passages, and were passaged once or twice weekly. Cells were harvested using TrypLE or PBS buffer containing 1 mM EDTA, and the percentage of viable cells was determined using a CASY Model TI cell counter (OMNI Life Science). Cells were harvested from exponential phase cultures, counted and plated in 96 well flat-bottom microtiter plates at a cell density depending on the cell line's growth rate (4,000-20,000 cells/well depending on the cell line's growth rate, up to 60,000 for hematological cancer cell lines) in RPMI 1640 or DMEM medium supplemented with 10% (v/v) fetal calf serum and 50 μg/ml gentamicin (140 μl/well). Cultures were incubated at 37° C. and 5% CO2 in a humidified atmosphere. After 24 h, 10 μl of test compounds or control medium were added and left on the cells for another 72 h. Compounds were serially diluted in DMSO, transferred in cell culture medium, and added to the assay plates. The DMSO concentration was kept constant at <0.3% v/v across the assay plate. Viability of cells was quantified by the CellTiter-Blue® cell viability assay (Promega G8081) or CellTiter-Glow® Luminescent Cell Viability assay (Promega #G7572). Fluorescence (FU) was measured by using the EnSpire® multimode plate reader (Perkin Elmer) (excitation λ=570 nm, emission λ=600 nm) Luminescence was measured with a microplate luminometer (Promega or PerkinElmer). […]

CO-04-0701 = assay: Cell viability, colon PDX CO-04-0701
Description: as §1, §2, §5

EN-11-0101 = assay: Cell viability, endometrial PDX EN-11-0101
Description: as §1, §2, §3, §4

ES-06-0002 = assay: Cell viability, esophagus PDX ES-06-0002
Description: as §1, §2, §5

CO-04-0700 = assay: Cell viability, colon PDX CO-04-0700
Description: as §1, §2, §5

OVXF 899 = assay: Cell viability assay, OVXF 899; settings: ovarian carcinoma OVXF 899
Description: as §6, §7

[1] = kidney PDX KI-12-0062, read-out: IC50
[2] = lymphoma PDX LY-24-0340, read-out: IC50
[3] = endometrial PDX EN-11-0101, read-out: IC50

## COc1c(O)ccc2c(=O)c(O)c(-c3ccc(CCCC[P+](c4ccccc4)(c4ccccc4)c4ccccc4)cc3)oc12 [SND190, (4-(4-(3,7-Dihydroxy-8-methoxy-4-oxo-4H1-chromen-2-yl)phenyl)butyl)triphenylphosphonium bromide]
KI-12-0062; [1]
  IC50: 15.1 µM
KI-12-0062; text summary of Table 11 (kidney PDX), read-out: IC50, kidney PDX growth
  IC50: < 20 µM
PC-07-0045
  IC50: 3400 nM
HT-29; Homo sapiens
  IC50: 5.78 µM
ST-02-0007
  IC50: 5.7 µM
ST-02-0173
  IC50: 11 µM
LU-01-0010
  IC50: 1.1 µM
LoVo; Homo sapiens
  IC50: 2490 nM
PC-07-0059
  IC50: 2.3 µM
SF-268; Homo sapiens
  IC50: 4.1 µM
22Rv1; Homo sapiens
  IC50: 790 nM
LY-24-0340; Table 16, read-out: IC50, lymphoma PDX growth
  IC50: < 5 µM
LY-24-0340; [2]
  IC50: 3.8 µM
OVCAR-3; Homo sapiens
  IC50: 3810 nM
CH-17-0098
  IC50: 4 µM
HL-60; Homo sapiens, HL-60, summary of Table 12, read-out: IC50, leukaemia cell growth
  IC50: < 1000 nM
HL-60; Homo sapiens, leukaemia cell line HL-60, read-out: IC50
  IC50: 300 nM
CO-04-0701
  IC50: 14.7 µM
EN-11-0101; Table 8, read-out: IC50, endometrial PDX growth
  IC50: < 20 µM
EN-11-0101; [3]
  IC50: 7.9 µM
ES-06-0002
  IC50: 4.9 µM
CO-04-0700
  IC50: 2.4 µM
OVXF 899
  IC50: 8.76 µM

## O=c1cc(-c2ccc(CCC[P+](c3ccccc3)(c3ccccc3)c3ccccc3)cc2)oc2c(O)c(O)ccc12 [SND200, (3-(4-(7,8-Dihydroxy-4-oxo-4H1-chromen-2-yl)phenyl)propyl)triphenylphosphonium bromide]
KI-12-0062; [1]
  IC50: 14.5 µM
PC-07-0045
  IC50: 2300 nM
HT-29
  IC50: 3.31 µM
ST-02-0007
  IC50: 9.4 µM
ST-02-0173
  IC50: 15.5 µM
LU-01-0010
  IC50: 10 µM
LoVo
  IC50: 640 nM
PC-07-0059
  IC50: 6.7 µM
SF-268
  IC50: 7.83 µM
22Rv1
  IC50: 420 nM
LY-24-0340; [2]
  IC50: 4 µM
OVCAR-3
  IC50: 1600 nM
CH-17-0098
  IC50: 7.5 µM
HL-60; leukaemia cell line HL-60, read-out: IC50
  IC50: 300 nM
CO-04-0701
  IC50: 15.1 µM
EN-11-0101; [3]
  IC50: 10.4 µM
ES-06-0002
  IC50: 11.6 µM
CO-04-0700
  IC50: 7.6 µM
OVXF 899
  IC50: 6.37 µM
